Assay [1] has as its system Namalwa cell line (lymphoma). As to the kind of experiment: Cytotoxic activity: inhibition of cell proliferation, ATPLite luminescence of residual ATP after 72 hours. The class given is cell-based. The following applies: Namalwa human lymphoma cell line, 72 hours of incubation, read-out: IC50 (expressed in nM) Namalwa. The procedure: (§1) The cytotoxic activity of the compounds of the invention was evaluated by measuring inhibition of cell proliferation of human tumour cell lines, such as the A549 cell line (lung) and the Namalwa cell line (lymphoma). This activity is expressed by IC50, the concentration of the product tested able to inhibit cell proliferation by 50%. The method employed is measurement by luminescence of residual ATP after 72 hours of incubation using the ATPLite® kit sold by Perkin Elmer, as described in the following publication: “Measurement of cytotoxicity by ATP-based luminescence assay in primary cell cultures and cell lines.” I. A. Cree, P. E. Andreotti, Toxicology in Vitro, 11, 553-6, (1997).
(§2) As an example, the cytotoxic properties of a few of the compounds of the invention evaluated on A549 and Namalwa cell lines are presented in the following table: […]

In the next assay the test system is A549 cell line (lung). The description is as above. The class given is cell-based. The following applies: A549 human lung tumour cell line, 72 hours of incubation, read-out: IC50 (expressed in nM) A549. As for the experimental part: as §1, §2

These results are taken from patent US8614339B2, “Dimeric derivatives of artemisinin and application in anti-cancer therapy” (Pierre Fabre Medicament, priority 2008, dated 2013).

Each structure is given as a SMILES string.

In the case of `C[C@@H]1CC[C@H]2C(COCCCO[C@@]3(C(F)(F)F)O[C@@H]4OC5(C)CCC6[C@H](C)CC[C@@H]([C@H]3C)[C@]64OO5)=C(C(F)(F)F)O[C@@H]3OC4(C)CCC1[C@]32OO4` (stereo partly drawn) [Compound 1], the IC50 (in general, the point on the concentration scale where inhibition reaches its midpoint) in assay [1] was found to be 6.8 nM; in the assay with A549 cell line (lung) it was 5.2 nM.

On to `C[C@@H]1CC[C@H]2C(COCCO[C@@]3(C(F)(F)F)O[C@@H]4OC5(C)CCC6[C@H](C)CC[C@@H]([C@H]3C)[C@]64OO5)=C(C(F)(F)F)O[C@@H]3OC4(C)CCC1[C@]32OO4` (stereo partly drawn) [Compound 2], for which the IC50 stood at 27 nM in assay [1] and 25 nM in the assay on A549 cell line (lung).

Turning to `C[C@@H]1CC[C@H]2C(COCCCCO[C@@]3(C(F)(F)F)O[C@@H]4OC5(C)CCC6[C@H](C)CC[C@@H]([C@H]3C)[C@]64OO5)=C(C(F)(F)F)O[C@@H]3OC4(C)CCC1[C@]32OO4` (stereo partly drawn) [Compound 3], the results for the IC50 (in assay [1]; in the assay on A549 cell line (lung)) were 5.5 nM and 6.7 nM, respectively.

On to `C[C@@H]1CC[C@H]2C(COCc3cccc(CO[C@@]4(C(F)(F)F)O[C@@H]5OC6(C)CCC7[C@H](C)CC[C@@H]([C@H]4C)[C@]75OO6)n3)=C(C(F)(F)F)O[C@@H]3OC4(C)CCC1[C@]32OO4` (stereo partly drawn) [Compound 4], for which the IC50 in assay [1] was found to be 19 nM; in the assay with A549 cell line (lung), 27 nM.

On to `C[C@@H]1CC[C@H]2C(Cn3nncc3CO[C@@]3(C(F)(F)F)O[C@@H]4OC5(C)CCC6[C@H](C)CC[C@@H]([C@H]3C)[C@]64OO5)=C(C(F)(F)F)O[C@@H]3OC4(C)CCC1[C@]32OO4` (stereo partly drawn) [Compound 7], for which the IC50 in assay [1] was 30 nM; in the assay with A549 cell line (lung), 45 nM.

On to `C[C@@H]1CC[C@H]2C(COC/C=C/CO[C@@]3(C(F)(F)F)O[C@@H]4OC5(C)CCC6[C@H](C)CC[C@@H]([C@H]3C)[C@]64OO5)=C(C(F)(F)F)O[C@@H]3O[C@@]4(C)CCC1[C@]32OO4` (stereo partly drawn) [Compound 8], for which the IC50 in assay [1] came to 13 nM; in the assay with A549 cell line (lung), 27 nM.

Turning to `C[C@@H]1CC[C@H]2C(CNCCO[C@@]3(C(F)(F)F)O[C@@H]4OC5(C)CCC6[C@H](C)CC[C@@H]([C@H]3C)[C@]64OO5)=C(C(F)(F)F)O[C@@H]3O[C@@]4(C)CCC1[C@]32OO4` (stereo partly drawn) [Compound 10], the half-maximal inhibitory concentration (IC50) in assay [1] worked out at 19 nM; in the assay on A549 cell line (lung) it was 27 nM.

Take `C[C@@H]1CC[C@H]2[C@@H](C)[C@](OCCCCCOCC3=C(C(F)(F)F)O[C@@H]4O[C@@]5(C)CC[C@H]6[C@H](C)CC[C@@H]3[C@@]46OO5)(C(F)(F)F)O[C@@H]3O[C@@]4(C)CC[C@@H]1[C@]32OO4` [Compound 16]: the results for the IC50 (in assay [1]; in the assay with A549 cell line (lung)) were 42 nM and 19 nM, respectively.

For `C[C@@H]1CC[C@H]2[C@@H](C)[C@](OCCCCCN(C)CC3=C(C(F)(F)F)O[C@@H]4O[C@@]5(C)CC[C@H]6[C@H](C)CC[C@@H]3[C@@]46OO5)(C(F)(F)F)O[C@@H]3O[C@@]4(C)CC[C@@H]1[C@]32OO4` [Compound 22], the IC50 came out at 83 nM in assay [1] and 46 nM with A549 cell line (lung).
